Results from patent US20080187575A1 (priority 2004, published 2008).

Tested on: pathogenic form of the prion protein PrP^Sc in prion infected cells (3F4-ScN2a)
Format: cell-based, mouse
Details: for amount of PrP^Sc in prion infected cells: concentration range between 5 and 20 μM (final concentration), three days; for activity of prion propagation (FIG. 5): within concentration range 5 to 20 μM

Compound	amount of PrP^Sc in prion infected cells	activity of prion propagation (FIG. 5)
O=S(=O)(Nc1cccc(Nc2nccc(-c3ccncc3)n2)c1)c1ccc(Cl)cc1 [Compound 37, 4-Chloro-N-[3-(4-pyridin-4-yl-pyrimidin-2-ylamino)-phenyl]-benzenesulfonamide]	significantly reduced	inhibit almost completely
Cc1ccc(N)cc1Nc1nccc(-c2cccnc2)n1 [Compound 4, 4-Methyl-N-3-(4-pyridin-3-yl-pyrimidin-2-yl)-benzene-1,3-diamine]	significantly reduced	inhibit almost completely
Cc1ccc(NC(=O)c2ccc(CCl)cc2)cc1Nc1nccc(-c2cccnc2)n1 [Compound 5, 4-Chloromethyl-N-[4-methyl-3-(4-pyridin-3-yl-pyrimidin-2-ylamino)-phenyl]-benzamide]	significantly reduced	inhibit almost completely
